The values that follow come from patent US20110059886A1, “HCV NS3-NS4A Protease Inhibition” (priority 2004, published 2011).

pIC50, pKi: −log10 of the molar value. Like-named read-outs stand apart in the source and are kept apart here. Non-standard residues stand in square brackets, D forms with d. Residues, ends and D or L forms follow the SMILES beside them. Abu = CC[C@H](N)C(=O)O

For data set [1], the target named is RET-S1 fluorescent peptide (AnaSpec, San Jose, Calif.).
Data set [2] addresses NS5AB peptide substrate, based on the NS5A/NS5B cleavage site for genotype 1a HCV.
Data set [3] concerns CC[C@H](NC(=O)[C@@H](NC(=O)[C@@H](NC(=O)[C@H](CC(=O)O)NC(=O)[C@@H](N)CCC(=O)O)C(C)C)C(C)C)C(=O)N[C@@H](CS)C(=O)N[C@@H](CO)C(=O)N[C@@H](CCSC)C(=O)N[C@@H](CO)C(=O)N[C@@H](Cc1ccc(O)cc1)C(=O)O. Description: purified protein, by the assay type. Conditions: other: genotype 1a; NS5AB substrate; pH 7.8; 40.0 °C.
Data set [4] concerns the target T1, HCV NS3 protease genotype 2a (Hepatitis C virus genotype 2a, UniProt P26660, L1043K/T1046A/V1183I).
T1 construct: DNA fragment encoding residues Ala^1-Ser^181 of several isolates of genotype 2a or 2b; hexa-histidine (C); made in house; host or cells: E. coli BL21/DE3 pLysS
In words: Kinetic parameters of NS5AB substrate, HPLC peptide cleavage assay. The data set is classed as biochemical. The procedure: (§1) Peptide sequences are shown below.
(§2) For determination of the kinetic parameters Km and Vmax, the NS5AB substrate was varied between 3 μM and 200 μM. The ratio of the product peak area to the reaction time yielded a rate of enzyme catalyzed hydrolysis. These rate vs. substrate concentration data points were fit to the Michaelis-Menten equation using non-linear regression. The value of kcat was determined from Vmax using the nominal protease concentration and a fully cleaved substrate peptide as an instrument calibration standard.

Data set [5] deals with T2, HCV NS3 protease genotype 3a (Hepatitis C virus genotype 3a, UniProt Q81258, I1084M/L1045K/S1134A/S1198A).
T2 construct: DNA fragment encoding residues Ala^1-Ser^181 of several isolates of genotype 2a or 2b; hexa-histidine (C); made in house; host or cells: E. coli BL21/DE3 pLysS
T2 sequence (Q81258 1033-1213, looked up, stated change not applied, other chains not shown): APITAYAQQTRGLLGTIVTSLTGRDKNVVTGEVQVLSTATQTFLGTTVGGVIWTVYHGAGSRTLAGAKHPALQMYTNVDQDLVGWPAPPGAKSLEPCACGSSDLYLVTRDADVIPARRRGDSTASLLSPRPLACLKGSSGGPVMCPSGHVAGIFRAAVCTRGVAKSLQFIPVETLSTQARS
The data set is described as above. Format: biochemical. How it is done: as §1, §2

The target in the next data set is NS3-4A serine protease (Hepatitis C virus genotype 1a, UniProt P27958). Description: Enzyme assays with KK-4A peptide and FRET substrate, mode of binding.
Chain of NS3-4A serine protease (P27958 1027-1208, other chains not shown): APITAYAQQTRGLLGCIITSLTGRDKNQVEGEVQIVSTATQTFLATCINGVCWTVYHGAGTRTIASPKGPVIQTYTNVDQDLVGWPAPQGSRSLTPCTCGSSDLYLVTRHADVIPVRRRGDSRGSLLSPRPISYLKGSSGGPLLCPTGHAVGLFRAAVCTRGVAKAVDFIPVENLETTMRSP
A further data set has as its target NS3/4A protease. Conditions: WO 02/018369, cited from earlier work.
Data set [6] concerns the target T1, HCV NS3 protease genotype 2a. In words: Fluorescence peptide assay, potency with extended incubation. The data set is classed as biochemical. Conditions: IC50 after extended preincubation taken as Ki of tightly bound complex, read-out: Ki following extended incubation.
For data set [7] the target is unchanged. Description: Progress curve analysis of slow binding inhibition. Format: biochemical.
Text: (§5) F(t)=Vs×t+(Vi−Vs)×(1−exp (−kobs×t))/kobs+C Equation 1:
(§6) kobs=koff+(kon×[I])/(1+[S]/Km) Equation 2:
The subject of data set [8] is Cells containing hepatitis C virus (HCV) replicon. Description: HCV replicon cell assay. The data set is classed as cell-based. As to conditions: 48 h, read-out: (concentration at which 50% inhibition of HCV RNA level is observed). How it is done:
Cells were obtained according to the method of Lohmannn et al., Science, 285, pp. 110-113 (1999). Cells containing hepatitis C virus (HCV) replicon were maintained in DMEM containing 10% fetal bovine serum (FBS), 0.25 mg per ml of G418, with appropriate supplements (media A).
On day 1, replicon cell monolayer was treated with a trypsin:EDTA mixture, removed, and then media A was diluted into a final concentration of 100,000 cells per ml wit. 10,000 cells in 100 ul were plated into each well of a 96-well tissue culture plate, and cultured overnight in a tissue culture incubator at 37° C.
On day 2, compounds (in 100% DMSO) were serially diluted into DMEM containing 2% FBS, 0.5% DMSO, with appropriate supplements (media B). The final concentration of DMSO was maintained at 0.5% throughout the dilution series. […]
A Taqman real-time RT-PCR quantification assay was set up with two sets of specific primers and probe. […] Total RNA extractants from treated HCV replicon cells was added to the PCR reactions for quantification of both HCV and BVDV RNA in the same PCR well. […] The level of HCV RNA in each well was calculated according to a standard curve run in the same PCR plate. The percentage of inhibition or decrease of HCV RNA level due to compound treatment was calculated using the DMSO or no compound control as 0% of inhibition. […]
In general terms: Replicon systems follow genome replication, usually without infectious particles.

Data set [9] concerns the target T2, HCV NS3 protease genotype 3a. In words: Fluorescence peptide assay, potency with extended incubation. The data set is classed as biochemical. As to conditions: IC50 after extended preincubation taken as Ki of tightly bound complex, read-out: Ki following extended incubation.
For data set [10] the target is unchanged. In words: Progress curve analysis of slow binding inhibition. Format: biochemical.
Text: as §5, §6
Data set [11] has as its target T1, HCV NS3 protease genotype 2a. Description: HPLC peptide cleavage assay, apparent Ki. The data set is classed as biochemical. Conditions: 15 min preincubation, NS5AB at Km.
Text: as §1
(§3) Biophys. Acta. 874, pp. 44-53 (1986)].

Data set [12] addresses T2, HCV NS3 protease genotype 3a. Description: HPLC peptide cleavage assay, apparent Ki. Conditions: 15 min preincubation, NS5AB at Km. The data set is classed as biochemical.
Text: as §1, §3

Data set [13] concerns the target T1, HCV NS3 protease genotype 2a. In words: Inhibition constant from steady-state rates of progress curves. Format: biochemical. As to conditions: steady-state portion of progress curves, Morrison fit, read-out: Ki using steady-state rates. The procedure:
(§4) The rates of onset of slow binding inhibition were determined by a modification of the method for measurement of progress curves described by Narjes et al. [Narjes F. et al., Biochemistry 39, pp. 1849-1861 (2000)]. […] The reaction was initiated by addition of an aliquot of pre-heated enzyme stock to the compound-substrate mixture to yield final concentrations of 6 to 12 μM RET-S1 and 0.5 nM to 4 nM HCV NS3 protease. […] T., Adv. Enzymol. Relat. Areas Mol. Biol. 61, pp. 201-301 (1988)].
as §3

Data set [14] deals with T2, HCV NS3 protease genotype 3a. Described as above. Format: biochemical. Conditions: steady-state portion of progress curves, Morrison fit, read-out: Ki using steady-state rates. How it is done: as §4, §3

The term kcat/Km denotes the turnover number divided by the Michaelis constant. With “HCV NS3 serine protease domain, genotype 2a consensus sequence (enzyme)”, the values for the kcat/Km in data set [1] and in [2] were 65000 M⁻¹ s⁻¹ and 31000 M⁻¹ s⁻¹, respectively.

On to “HCV NS3 serine protease domain, genotype 3a consensus sequence (enzyme)”, for which the results for the kcat/Km in data set [1] and in data set [2] were 22000 M⁻¹ s⁻¹ and 5200 M⁻¹ s⁻¹, respectively.

Usually Km stands for the substrate concentration at which the rate is half of its maximum. For the compound “HCV NS3 protease genotype 1a (Hepatitis C virus (isolate H77))”, in data set [3], the Km came to 25 µM and the kcat/Km worked out at 30000 M⁻¹ s⁻¹.

`CC[C@H](NC(=O)[C@@H](NC(=O)[C@@H](NC(=O)[C@H](CC(=O)O)NC(=O)[C@@H](N)CCC(=O)O)C(C)C)C(C)C)C(=O)N[C@@H](CS)C(=O)N[C@@H](CO)C(=O)N[C@@H](CCSC)C(=O)N[C@@H](CO)C(=O)N[C@@H](Cc1ccc(O)cc1)C(=O)O` [NS5AB, NH2-EDVV-(alpha)Abu-CSMSY-COOH] (H-EDVV[Abu]CSMSY-OH): the Km in data set [4] came to 11 µM; in data set [5] it was 70 µM.

For orientation: pKi means −log10 of the Ki, conventionally taken in molar units. In the case of `CCC[C@H](NC(=O)[C@@H]1[C@H]2CCC[C@H]2CN1C(=O)[C@@H](NC(=O)[C@@H](NC(=O)c1cnccn1)C1CCCCC1)C(C)(C)C)C(=O)C(=O)NC1CC1` [VX-950], the “mode of binding to the NS3-4A serine protease” value at NS3-4A serine protease was “reversible, covalent, competitive, tight and slow binding”. In addition, the pKi is 8.10 at NS3/4A protease (read-out: Ki); 8.52 at NS3/4A protease (read-out: steady state binding constant (ki*)); 7.43 in [6]; 7.17 in data set [7]; 6.34 in data set [9]; 6.36 in [10]. Further, the pKi in data set [11] was 7.40; in data set [12], 6.19; in [13], 7.49; in data set [14], 6.57. Besides, the pIC50 in data set [8] is 6.45.

As for HCV NS3 protease, genotype 1a (enzyme), the kcat/Km in data set [1] is 170000 M⁻¹ s⁻¹; in data set [2], 30000 M⁻¹ s⁻¹.
